Publication PMC4516937 (Toxins, 2015)

Molecular target: T1, OsUGT79 (Oryza sativa, UniProt Q7XT97)
T1 construct: gene UGT79
T1 sequence (Q7XT97 1-466): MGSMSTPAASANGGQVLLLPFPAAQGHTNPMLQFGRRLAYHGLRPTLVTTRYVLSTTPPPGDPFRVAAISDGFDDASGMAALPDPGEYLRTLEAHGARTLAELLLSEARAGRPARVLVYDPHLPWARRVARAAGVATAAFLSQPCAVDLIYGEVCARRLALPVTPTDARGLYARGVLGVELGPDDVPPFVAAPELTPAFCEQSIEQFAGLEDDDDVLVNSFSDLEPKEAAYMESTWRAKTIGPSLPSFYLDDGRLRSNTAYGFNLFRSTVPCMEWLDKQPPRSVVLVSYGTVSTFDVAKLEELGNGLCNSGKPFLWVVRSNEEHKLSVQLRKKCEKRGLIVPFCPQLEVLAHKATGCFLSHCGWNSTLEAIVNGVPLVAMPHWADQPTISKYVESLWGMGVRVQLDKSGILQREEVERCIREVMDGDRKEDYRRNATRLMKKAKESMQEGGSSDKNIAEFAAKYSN
Test: glucosylation assay of purified recombinant enzyme with HPLC-MS/MS ([…] DON/[…] UDP-glucose)
Assay type: biochemical

How did the IC50 turn out when `O=c1ccn([C@@H]2O[C@H](COP(=O)(O)OP(=O)(O)O)[C@@H](O)[C@H]2O)c(=O)[nH]1` [UDP] was run?
The IC50 was roughly 1.5 mM.
